Among the data in US20260035403A1, “NUCLEOSIDE LINE-1 INHIBITORS” (TRANSPOSON THERAPEUTICS, INC., priority 2022, published 2026) are IC50 values, retold here.

Each structure is given as a SMILES string. pIC50: −log10 of the molar value.

The test system of the first experiment is human LINE-1. Briefly: Human LINE-1 retrotransposition assay (HeLa cell-based dual-luciferase reporter). To be noted: Homo sapiens, HeLa, 72 h, Human LINE-1 activity inhibition; HeLa cells, reporter plasmid pYX017, Firefly/Renilla, 72 h incubation. The method, then: Representative Compounds of the Disclosure were tested for inhibition of retrotransposition activity of human LINE-1 in HeLa cells according to the following procedure.
HeLa cervical cancer cells were cultivated at 37° C. in a humidified 5% CO2 incubator in Dulbecco's Modified Eagle's Medium (DMEM)—high glucose, with 4500 mg/L glucose, L-glutamine, sodium pyruvate and sodium bicarbonate (Sigma), supplemented with 10% of heat inactivated fetal bovine serum (Thermo Fisher).
Assays were performed using reporter plasmid pYX017 as described (Xie, et al., 2011) with several modifications. The reporter assay was performed in 96-well white optical bottom plates. HeLa cells were seeded in wells 24 h prior to transfection and compound treatment so that cells were approximately 30% confluent on the day of transfection. Different cell plating densities were tested and a density of 2×10^3 cells was determined to be optimal.
Compounds were resuspended in DMSO. Serial dilutions (1:3) were prepared in DMSO. Medium containing different concentrations of the compounds were prepared by adding 2 μl of the compound dilution to 1 ml of the culture medium. The final concentration of DMSO in the medium was 0.2%.
FuGENE® HD transfection reagent (Promega, E2311, Lot 382574 and Lot 397842) was used to transfect the plasmids into the cells. The transfection reagent: DNA mixture was prepared in OpiMEM (Thermo Fisher) according to manufacturer's instructions. Different ratios of transfection reagent to DNA were tested and a ratio of 3:1 was determined to be optimal. Culture medium was removed from the cells and discarded. The transfection reagent: DNA mixture (5 μl) was mixed with the compound containing medium (100 μl/well) and this was added onto the cells of each well. Cells were incubated at 37° C./5% CO2 for different incubation time. A 72 h incubation time was determined to be optimal.
Luciferase reporter activity was quantified with the Dual-Luciferase® Reporter Assay System (Promega) according to manufacturer's instructions for multiwell plates except that cells were lysed directly on the multiwell plate with 30 μl of the passive lysis buffer (PLB) for 20 min at room temperature, with gentle shaking to ensure complete cell lysis.
Firefly and Renilla luciferase signals were measured using a SpectraMax i3× Multi-Mode Microplate Reader. Integration times of 100 ms and 10 ms were used to measure the Firefly and Renilla signals respectively. Relative L1 activity is calculated as Firefly/Renilla*1000 or Firefly/Renilla*10,000. Dose response inhibition data were fit to a four parameter logistic equation using non-linear regression (using Graphpad Prism 8), to determine IC50 values for each inhibitor.
In general terms: Reporter assays use an easily measured gene product as a stand-in for the process of interest.
In general, pIC50 refers to −log10 of the IC50, conventionally taken in molar units. In turn, `C=C[C@]1(CO)O[C@@H](n2cnc3c(O)ncnc32)C[C@@H]1O` [Cpd. No. 100, 9-((2R,4S,5R)-4-hydroxy-5-(hydroxymethyl)-5-vinyltetrahydrofuran-2-yl)-9H-purin-6-ol] showed a pIC50 of 5.77.

As for `C=C[C@]1(CO)O[C@@H](n2cnc3c(OC)nc(N)nc32)C[C@@H]1O` [Cpd. No. 102, (2R,3S,5R)-5-(2-amino-6-methoxy-9H-purin-9-yl)-2-(hydroxymethyl)-2-vinyltetrahydrofuran-3-ol], the pIC50 was 5.75.

Regarding `CC[C@]1(CO)O[C@@H](n2cc(OC)c(=O)[nH]c2=O)C[C@@H]1O` [Cpd. No. 103, 1-((2R,4S,5R)-5-ethyl-4-hydroxy-5-(hydroxymethyl)tetrahydrofuran-2-yl)-5-methoxypyrimidine-2,4(1H,3H)-dione], the pIC50 was below 4.90.

In turn, `CC[C@]1(CO)O[C@@H](n2cnc3c(OC)nc(N)nc32)C[C@@H]1O` [Cpd. No. 125, (2R,3S,5R)-5-(2-amino-6-methoxy-9H-purin-9-yl)-2-ethyl-2-(hydroxymethyl)tetrahydrofuran-3-ol] had a pIC50 of 6.96.

As to `C=C[C@]1(CO)O[C@H](n2cc(C#N)c(=O)[nH]c2=O)C[C@@H]1O` [compound 7, 1-((2S,4S,5R)-4-hydroxy-5-(hydroxymethyl)-5-vinyltetrahydrofuran-2-yl)-2,4-dioxo-1,2,3,4-tetrahydropyrimidine-5-carbonitrile], the pIC50 is 6.05.

For the compound `C#C[C@]1(CO)O[C@@H](n2cnc3c(N)nc(F)nc32)[C@H](F)[C@@H]1O` [compound 13, (2R,3R,4R,5R)-5-(6-amino-2-fluoro-9H-purin-9-yl)-2-ethynyl-4-fluoro-2-(hydroxymethyl)tetrahydrofuran-3-ol], the pIC50 was 3.43.

In turn, `C#C[C@@]1(CO)C=C[C@H](n2cnc3c(N)ncnc32)O1` [compound 14, ((2R,5R)-5-(6-amino-9H-purin-9-yl)-2-ethynyl-2,5-dihydrofuran-2-yl)methanol] gave a pIC50 of 4.30.

Turning to `Cc1cn([C@H]2C=C[C@@](C)(CO)O2)c(=O)[nH]c1=O` [compound 21, 1-((2R,5S)-5-(hydroxymethyl)-5-methyl-2,5-dihydrofuran-2-yl)-5-methylpyrimidine-2,4(1H,3H)-dione], the pIC50 is below 4.30.

In turn, `Cc1cn([C@H]2C[C@@H](O)[C@@](C)(CO)O2)c(=O)[nH]c1=O` [compound 23, 1-((2R,4R,5R)-4-hydroxy-5-(hydroxymethyl)-5-methyltetrahydrofuran-2-yl)-5-methylpyrimidine-2,4(1H,3H)-dione] gave a pIC50 below 4.30.

`CC#C[C@@]1(CO)O[C@@H](n2cc(C)c(=O)[nH]c2=O)C[C@H]1O` [compound 24, 1-((2R,4R,5S)-4-hydroxy-5-(hydroxymethyl)-5-(prop-1-yn-1-yl)tetrahydrofuran-2-yl)-5-methylpyrimidine-2,4(1H,3H)-dione] had a pIC50 below 4.30.

`C=C[C@]1(CO)O[C@@H](n2cc(C)c(=O)[nH]c2=O)C[C@H]1O` [compound 25, 1-((2R,4R,5R)-4-hydroxy-5-(hydroxymethyl)-5-vinyltetrahydrofuran-2-yl)-5-methylpyrimidine-2,4(1H,3H)-dione] showed a pIC50 below 4.30.

For `C#C[C@@]1(CO)C[C@@H](Sc2ccc(C)cc2)[C@H](n2cc(C)c(=O)[nH]c2=O)O1` [compound 26, 1-((2R,3R,5R)-5-ethynyl-5-(hydroxymethyl)-3-(p-tolylthio)tetrahydrofuran-2-yl)-5-methylpyrimidine-2,4(1H,3H)-dione], the negative-log IC50 (pIC50) is below 4.30.

`C#C[C@@]1(CO)C=C[C@H](n2cc(C3CC3)c(=O)[nH]c2=O)O1` [compound 27, 5-cyclopropyl-1-((2R,5R)-5-ethynyl-5-(hydroxymethyl)-2,5-dihydrofuran-2-yl)pyrimidine-2,4(1H,3H)-dione] gave a pIC50 below 4.30.

The same experiment, now with this note: Human LINE-1 activity inhibition; HeLa cells, reporter plasmid pYX017, Firefly/Renilla, 72 h incubation.
In turn, `C#C[C@@]1(CO)C=C[C@H](n2cc(F)c(=O)[nH]c2=O)O1` [compound 22, 1-((5R)-5-ethynyl-5-(hydroxymethyl)-2,5-dihydrofuran-2-yl)-5-fluoropyrimidine-2,4(1H,3H)-dione] gave a pIC50 of 4.70.
